Data as given in US12473250B2, “Molecular design of new antibiotics and antibiotic adjuvants against MCR strains” (priority 2019, dated 2025).
Where two headings read alike, the source gives them in different places.

Columns and labels:
Assay type in all cases: cell-based
[1] = test system: colistin resistant MCR (+) E. Coli strains; test: MIC, broth microdilution, compound alone; settings: compound alone
Description: (§1) MIC experiments of the antimicrobial agents were determined by a modified broth microdilution method in accordance with the Clinical and Laboratory Standards Institute (CLSI) guidelines using 96 well culture plates. In brief, serial dilutions of all plates were prepared at different concentrations (μg). The inoculum suspension was prepared by adding isolated colonies from a 18-20 hours on TSA plate into phosphate buffer (0.31 mM, pH 7.2) or in water for injection (BBraun) and adjusting the suspension to a turbidity equivalent to 0.5 McFarland Standard. Each well contained a final bacterial concentration of approximately 5×10^5 colony forming units (CFU)/mL. The plate was covered and incubated at 35° C. for 24 hours. […] For the microdilution plates, turbidity in wells can be measured at OD600 using TECAN infinite M200Pro. MIC was determined as […] concentration that gives a 99 percent inhibition.

[2] = test system: colistin resistant MCR (−) E. Cloacae strain 7023456439; test: MIC, broth microdilution, compound alone; settings: strain 7023456439 E. Cloacae
Description: as §1

[3] = test system: colistin resistant MCR (−) E. Coli strains; test: MIC, broth microdilution, compound alone
Description: as §1

[4] = test system: colistin resistant MCR (+) E. Coli strains; test: Synergy study: colistin MIC in the presence of compound; settings: for Colistin MIC in the presence of the compound: compound at 250 ug/ml
Description: (§2) The MICs of the individual drugs and LC compound in combinations were determined using the broth microdilution technique as recommended by the CLSI whereby the two anti-microbial agents were added in an equal amount. (e.g.: 50 μL of Colistin: 50 μL of LC compounds). Diluted media containing compounds and antibiotics will be serially diluted 2-fold, and LC compounds and antibiotics alone or in combination will be assayed at fixed synergy concentration. In all cases, the lowest concentration at which no visible growth occurred was be recorded to be the MIC value of individual and combined antibacterial agents. The results were obtained after 24 hours of incubation.

[5] = test system: colistin resistant MCR (−) E. Cloacae strain 7023456439; test: as above; settings: strain 7023456439 E. Cloacae
Description: as §2

[6] = test system: colistin resistant MCR (−) E. Coli strains; test: as above
Description: as §2

[7] = compound at 10 μg (Table 2a: 10 ug/ml)
[8] = strain 6083672926, MCR(−), compound at 10 μg (Table 2a: 10 ug/ml)
[9] = strain 7023446108, MCR(−), compound at 10 μg (Table 2a: 10 ug/ml)
[10] = strain 7033607097, MCR(−), compound at 10 μg (Table 2a: 10 ug/ml)

Structure (SMILES)	MIC ([1]; strain 6083655967, MCR (+)) [µg/mL]	MIC ([1]; strain 6103645107, MCR (+)) [µg/mL]	MIC ([1]; strain 6123520276, MCR (+)) [µg/mL]	MIC ([1]; strain 7013177695, MCR (+)) [µg/mL]	MIC ([1]; strain 7023436560, MCR (+)) [µg/mL]	MIC ([1]; strain 7023444207, MCR (+)) [µg/mL]	MIC ([3]; strain 6083672926, MCR (−)) [µg/mL]	MIC ([3]; strain 7033607097, MCR (−)) [µg/mL]	MIC ([1]; strain 6075066346, MCR (+)) [µg/mL]	MIC [2] [µg/mL]	MIC ([3]; strain 7023446108, MCR (−)) [µg/mL]	Colistin MIC in the presence of the compound [5, 7] [µg/mL]	Colistin MIC in the presence of the compound [6, 8] [µg/mL]	Colistin MIC in the presence of the compound [6, 9] [µg/mL]	Colistin MIC in the presence of the compound [6, 10] [µg/mL]	other results
O=C(O)CN(CCN(CC(=O)O)CC(=O)O)CC(=O)O [EDTA, Ethylenediaminetetraacetic acid, reference compound]	>250	>250	>250	>250	>250	>250	>250	>250								MIC ([1]; Escherichia coli, strain 6075066346, MCR (+), read-out: MIC): > 250 µg/mL; MIC ([2]; Enterobacter cloacae, read-out: MIC): > 250 µg/mL; MIC ([3]; Escherichia coli, strain 7023446108, MCR (−), read-out: MIC): > 250 µg/mL; concentration at which the compound shows synergy with colistin ([4]; against mcr-1 bacteria): higher than 250 μg/ml; Colistin MIC in the presence of the compound ([4]; strain 6083655967, MCR(+)): 0.78 µg/mL; Colistin MIC in the presence of the compound ([4]; strain 6103645107, MCR(+)): 0.39 µg/mL; Colistin MIC in the presence of the compound ([4]; strain 6123520276, MCR(+)): 0.78 µg/mL; Colistin MIC in the presence of the compound ([4]; strain 7013177695, MCR(+)): 0.78 µg/mL; Colistin MIC in the presence of the compound ([4]; strain 7023436560, MCR(+)): 0.39 µg/mL; Colistin MIC in the presence of the compound ([5]; compound at 250 ug/ml): 3.125 µg/mL; Colistin MIC in the presence of the compound ([6]; strain 6083672926, MCR(−), compound at 250 ug/ml): 0.78 µg/mL; Colistin MIC in the presence of the compound ([6]; strain 7023446108, MCR(−), compound at 250 ug/ml): 0.39 µg/mL; Colistin MIC in the presence of the compound ([6]; strain 7033607097, MCR(−), compound at 250 ug/ml): 0.195 µg/mL
CC1(C)C=Cc2c(ccc3c2OCC(c2ccc(OCC(=O)NC(CCCNC(=N)N)C(N)=O)cc2OCC(=O)NC(CCCNC(=N)N)C(N)=O)C3)O1 (stereo not drawn) [LC127]	>50	>50	>50	>50	>50	>50	>50	>50	>50	>50	>50	>12.5	12.5	6.25	6.25	
CC(C)=CCc1c(OCC(=O)NC(CCCNC(=N)N)C(N)=O)ccc(C(=O)/C=C/c2ccc(OCC(=O)NC(CCCNC(=N)N)C(N)=O)cc2)c1O (stereo not drawn) [LC131]	>50	>50	>50	>50	>50	>50	>50	>50	>50	>50	>50	>12.5	12.5	6.25	6.25	
CC(C)=CCc1c(OCCC[N+](C)(C)C)ccc(C(=O)/C=C/c2ccc(OCCC[N+](C)(C)C)cc2)c1O [LC312]	12.5	12.5	12.5	12.5	6.25	12.5	12.5	12.5	12.5	>50	6.25	>12.5	<0.0975	<0.0975	<0.0975	
CC[N+](CC)(CC)CCCCOc1ccc(/C=C/C(=O)c2ccc(OCCCC[N+](CC)(CC)CC)c(CC=C(C)C)c2O)cc1 [LC315]	6.25	6.25	12.5	12.5	6.25	12.5	25	12.5	6.25	>50	12.5					Colistin MIC in the presence of the compound ([5]; compound at 5 μg (Table 2a: 5 ug/ml)): >12.5 µg/mL; Colistin MIC in the presence of the compound ([6]; strain 6083672926, MCR(−), compound at 5 μg (Table 2a: 5 ug/ml)): <0.0975 µg/mL; Colistin MIC in the presence of the compound ([6]; strain 7023446108, MCR(−), compound at 5 μg (Table 2a: 5 ug/ml)): <0.0975 µg/mL; Colistin MIC in the presence of the compound ([6]; strain 7033607097, MCR(−), compound at 5 μg (Table 2a: 5 ug/ml)): <0.0975 µg/mL
CC[N+](CC)(CC)CCCCOc1ccc(C2COc3c(ccc4c3C=CC(C)(C)O4)C2)c(OCCCC[N+](CC)(CC)CC)c1 (stereo not drawn) [LC317]	50	50	>50	50	50	50	>50	>50	50	>50	50	>12.5	1.56	1.56	1.56	
Cc1cc(OCCCCN(Cc2ccccn2)Cc2ccccn2)cc(OCCCCN(Cc2ccccn2)Cc2ccccn2)c1.[Cl][Zn][Cl].[Cl][Zn][Cl] [Orc-DPA-Zn]	50	>50	50	50	50	50	50	50	50	>50	50					Colistin MIC in the presence of the compound ([5]; compound at 50 ug/ml): <0.195 µg/mL; Colistin MIC in the presence of the compound ([6]; strain 6083672926, MCR(−), compound at 50 ug/ml): <0.195 µg/mL; Colistin MIC in the presence of the compound ([6]; strain 7023446108, MCR(−), compound at 50 ug/ml): <0.195 µg/mL; Colistin MIC in the presence of the compound ([6]; strain 7033607097, MCR(−), compound at 50 ug/ml): <0.195 µg/mL
